Assays:
[1] = molecular target: T1, PHD2_181–426 (Homo sapiens, UniProt Q9GZT9); assay: Non-denaturing ESI-MS of covalent adduct formation with PHD2; assay type: binding; details: for covalent modification of PHD2: analogues of 1/2, compared with 1/2; for condensation (covalent adduct) with PHD2 after 5 min: equimolar PHD2 (20 μM), Fe(II) and compound; for covalent reaction with PHD2 after 20 min: equimolar PHD2 and Fe(II), cone voltage 200 V
T1 construct: PHD2_181–426 (hereafter PHD2); His6 (N, cleaved yes); made in house; host or cells: bacterial culture (2x TY, kanamycin, IPTG)
Protocol: The interaction of the ligands with PHD2_181–426 (hereafter PHD2) was examined by non-denaturing ESI-MS, using cone voltage variation to distinguish covalent and non-covalent complexes (non-covalent interactions are typically preserved at cone voltages of 50–80 V, and dissociated at 200 V).[16]–[18] Aldehydes 1 and 2 were incubated with equimolar PHD2 and Fe(II) (37 °C; 5 or 20 min). […] Without Fe(II), neither covalent nor non-covalent adducts were observed, implying covalent conjugation involves active site Fe(II) binding, with subsequent condensation.
Fig. S2 A) Schematic representation of the assigned species formed on addition of 1 or 2 to PHD2. The results support initial non-covalent binding of the inhibitors to PHD2.Fe(II) to form B. Subsequently, condensation of a lysine residue with the aldehyde forms the covalent adduct C. (B) and (C): Non-denaturing ESI-MS data support the covalent crosslinking of 1/2 with PHD2. Conditions: PHD2 (20 µM) was incubated (37 °C, 5 or 20 min) with equimolar FeSO4 and 1 or 2, and the resulting mixtures were analysed by ESI-MS (cone voltage: 50 V or 200 V). Labelled peaks correspond to: A: Unmodified PHD2.Fe. B: Non-covalent adduct PHD2.Fe.2. C: Covalent adduct PHD2.Fe.1/2.
Fig. S6 The α,β-unsaturated amide 3 can covalently modify PHD2. (A) Schematic representation of the adducts formed upon incubation of 3 with PHD2.
PHD2. PHD2 (20 µM) was incubated (37 °C, 5 min, 1 h or 2 h) with equimolar FeSO4 and 3 or 4 before analysis by ESI-MS (cone voltage: 50 V or 200 V). Labelled peaks correspond to the following assigned complexes: A: unmodified PHD2.Fe; B: the non-covalent PHD2.Fe.3 adduct; C: the covalent PHD2.Fe.3 adduct.
2. Experimental procedures
1.1.1 Non-denaturing mass spectrometry1
Apo PHD2 was desalted using a Bio-Spin 6 Column (Bio-Rad, Hemel Hempstead, UK) into 15 mM ammonium acetate (pH 7.5). The stock solution was diluted with the same buffer to a final concentration of 100 μM. FeSO4·7H2O was dissolved in 20 mM HCl at a concentration of 100 mM. This solution was then diluted with MilliQ purified water to give a final working concentration of 100 μM. The protein was mixed with the Fe(II) solution and the inhibitor solution to give final concentrations of 20 μM PHD2, 20 μM Fe(II), and 20 μM inhibitor. The resultant solution was incubated for the appropriate time (specified in the text) at 37 […]
(5 min or 20 min) at 37 °C. After incubation, the samples were immediately analysed by ESI-MS. Data were acquired using a Q-TOF mass spectrometer (Q-TOF micro, Micromass, Altrincham, UK) interfaced with a Nanomate (Advion Biosciences, Ithaca, NY, USA) with a chip voltage of 1.70 kV and a delivery pressure 0.5 psi (1 psi = […]). The sample cone voltage was typically 200 or 50 V with a source temperature of 40 °C and with an acquisition/scan time of 10s/1s. Sample acquisition was performed in positive ion mode in the range of 2000-4000 m/z. The pressure at the interface between the atmospheric source and the high vacuum region was fixed at 6.30 mbar. External instrument calibration was achieved using sodium iodide.

[2] = test system: HIF-1α in HeLa cells; assay: HIF-1α levels in HeLa cells by anti-HIF-1α immunoblotting; details: 6 h
[3] = molecular target: T2, PHD2 (Homo sapiens, UniProt Q9GZT9); assay: Peptide turnover assay (CODD hydroxylation) with MALDI-MS detection; assay type: biochemical; details: >95% crosslinked PHD2·Fe·compound, 30 µM compound kept in the assay
T2 construct: PHD2_181–426 (hereafter PHD2); His6 (N, cleaved yes); made in house; host or cells: bacterial culture (2x TY, kanamycin, IPTG)

[4] = molecular target: T3, PHD2 (residues 181-426) (Homo sapiens, UniProt Q9GZT9); assay: biochemical
[5] = molecular target: T3, PHD2 (residues 181-426); assay: AlphaScreen antibody based PHD2 inhibition assay; details: preincubated versus not
[6] = test system: PHD2; parameters: method as in PMID 16782814; details: reversible iron-binding inhibitor; cited from earlier work
[7] = molecular target: T4, KDM4A (Homo sapiens, UniProt O75164); assay: AlphaScreen assay KDM4A
T4 sequence (O75164 1-1064): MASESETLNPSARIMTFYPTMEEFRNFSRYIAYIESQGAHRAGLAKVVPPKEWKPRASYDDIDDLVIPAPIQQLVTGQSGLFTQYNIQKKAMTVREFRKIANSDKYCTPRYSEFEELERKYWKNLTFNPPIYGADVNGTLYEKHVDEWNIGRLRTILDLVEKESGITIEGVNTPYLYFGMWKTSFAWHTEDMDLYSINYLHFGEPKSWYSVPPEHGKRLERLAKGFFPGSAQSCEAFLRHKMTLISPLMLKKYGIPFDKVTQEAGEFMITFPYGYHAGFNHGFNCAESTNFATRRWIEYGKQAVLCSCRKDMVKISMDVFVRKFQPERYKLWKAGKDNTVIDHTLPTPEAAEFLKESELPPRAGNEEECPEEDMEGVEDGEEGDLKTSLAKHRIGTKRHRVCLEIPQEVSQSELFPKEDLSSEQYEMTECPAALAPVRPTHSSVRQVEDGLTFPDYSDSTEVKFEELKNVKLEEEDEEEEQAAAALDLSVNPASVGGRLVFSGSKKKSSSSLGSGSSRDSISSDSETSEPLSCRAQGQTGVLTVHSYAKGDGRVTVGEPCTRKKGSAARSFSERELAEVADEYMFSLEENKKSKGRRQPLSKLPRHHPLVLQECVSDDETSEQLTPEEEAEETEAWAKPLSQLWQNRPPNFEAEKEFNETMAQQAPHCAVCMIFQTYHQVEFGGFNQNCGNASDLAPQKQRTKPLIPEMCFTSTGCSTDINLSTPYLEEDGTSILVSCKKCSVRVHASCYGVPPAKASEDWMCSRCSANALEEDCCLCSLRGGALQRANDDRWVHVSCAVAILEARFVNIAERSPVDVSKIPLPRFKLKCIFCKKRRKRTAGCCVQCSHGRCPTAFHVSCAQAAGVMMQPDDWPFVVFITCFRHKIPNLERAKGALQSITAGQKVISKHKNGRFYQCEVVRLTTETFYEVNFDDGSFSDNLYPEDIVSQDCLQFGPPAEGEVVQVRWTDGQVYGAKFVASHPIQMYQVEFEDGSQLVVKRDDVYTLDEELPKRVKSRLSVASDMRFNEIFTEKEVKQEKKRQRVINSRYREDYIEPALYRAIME

[8] = molecular target: T5, KDM4D (Homo sapiens, UniProt Q6B0I6); assay: AlphaScreen assay KDM4D
T5 sequence (Q6B0I6 1-523): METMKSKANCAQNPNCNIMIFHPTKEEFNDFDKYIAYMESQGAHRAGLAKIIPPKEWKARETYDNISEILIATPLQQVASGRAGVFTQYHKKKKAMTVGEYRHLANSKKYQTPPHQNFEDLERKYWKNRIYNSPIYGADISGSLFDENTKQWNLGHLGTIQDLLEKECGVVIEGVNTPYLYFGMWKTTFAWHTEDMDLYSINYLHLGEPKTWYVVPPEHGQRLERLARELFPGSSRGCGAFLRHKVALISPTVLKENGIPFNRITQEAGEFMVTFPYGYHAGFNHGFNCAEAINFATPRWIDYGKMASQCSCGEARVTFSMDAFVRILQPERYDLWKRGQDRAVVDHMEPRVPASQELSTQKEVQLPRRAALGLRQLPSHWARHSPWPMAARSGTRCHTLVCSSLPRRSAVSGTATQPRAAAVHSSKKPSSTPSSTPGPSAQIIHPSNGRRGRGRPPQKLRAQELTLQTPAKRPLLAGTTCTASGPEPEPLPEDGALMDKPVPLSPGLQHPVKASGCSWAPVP

[9] = molecular target: KDM5B (Homo sapiens, UniProt Q9UGL1); assay: AlphaScreen assay KDM5B
[10] = molecular target: KDM6B (Homo sapiens, UniProt O15054); assay: AlphaScreen assay KDM6B
KDM6B, sequence (O15054 whole entry, species assumed): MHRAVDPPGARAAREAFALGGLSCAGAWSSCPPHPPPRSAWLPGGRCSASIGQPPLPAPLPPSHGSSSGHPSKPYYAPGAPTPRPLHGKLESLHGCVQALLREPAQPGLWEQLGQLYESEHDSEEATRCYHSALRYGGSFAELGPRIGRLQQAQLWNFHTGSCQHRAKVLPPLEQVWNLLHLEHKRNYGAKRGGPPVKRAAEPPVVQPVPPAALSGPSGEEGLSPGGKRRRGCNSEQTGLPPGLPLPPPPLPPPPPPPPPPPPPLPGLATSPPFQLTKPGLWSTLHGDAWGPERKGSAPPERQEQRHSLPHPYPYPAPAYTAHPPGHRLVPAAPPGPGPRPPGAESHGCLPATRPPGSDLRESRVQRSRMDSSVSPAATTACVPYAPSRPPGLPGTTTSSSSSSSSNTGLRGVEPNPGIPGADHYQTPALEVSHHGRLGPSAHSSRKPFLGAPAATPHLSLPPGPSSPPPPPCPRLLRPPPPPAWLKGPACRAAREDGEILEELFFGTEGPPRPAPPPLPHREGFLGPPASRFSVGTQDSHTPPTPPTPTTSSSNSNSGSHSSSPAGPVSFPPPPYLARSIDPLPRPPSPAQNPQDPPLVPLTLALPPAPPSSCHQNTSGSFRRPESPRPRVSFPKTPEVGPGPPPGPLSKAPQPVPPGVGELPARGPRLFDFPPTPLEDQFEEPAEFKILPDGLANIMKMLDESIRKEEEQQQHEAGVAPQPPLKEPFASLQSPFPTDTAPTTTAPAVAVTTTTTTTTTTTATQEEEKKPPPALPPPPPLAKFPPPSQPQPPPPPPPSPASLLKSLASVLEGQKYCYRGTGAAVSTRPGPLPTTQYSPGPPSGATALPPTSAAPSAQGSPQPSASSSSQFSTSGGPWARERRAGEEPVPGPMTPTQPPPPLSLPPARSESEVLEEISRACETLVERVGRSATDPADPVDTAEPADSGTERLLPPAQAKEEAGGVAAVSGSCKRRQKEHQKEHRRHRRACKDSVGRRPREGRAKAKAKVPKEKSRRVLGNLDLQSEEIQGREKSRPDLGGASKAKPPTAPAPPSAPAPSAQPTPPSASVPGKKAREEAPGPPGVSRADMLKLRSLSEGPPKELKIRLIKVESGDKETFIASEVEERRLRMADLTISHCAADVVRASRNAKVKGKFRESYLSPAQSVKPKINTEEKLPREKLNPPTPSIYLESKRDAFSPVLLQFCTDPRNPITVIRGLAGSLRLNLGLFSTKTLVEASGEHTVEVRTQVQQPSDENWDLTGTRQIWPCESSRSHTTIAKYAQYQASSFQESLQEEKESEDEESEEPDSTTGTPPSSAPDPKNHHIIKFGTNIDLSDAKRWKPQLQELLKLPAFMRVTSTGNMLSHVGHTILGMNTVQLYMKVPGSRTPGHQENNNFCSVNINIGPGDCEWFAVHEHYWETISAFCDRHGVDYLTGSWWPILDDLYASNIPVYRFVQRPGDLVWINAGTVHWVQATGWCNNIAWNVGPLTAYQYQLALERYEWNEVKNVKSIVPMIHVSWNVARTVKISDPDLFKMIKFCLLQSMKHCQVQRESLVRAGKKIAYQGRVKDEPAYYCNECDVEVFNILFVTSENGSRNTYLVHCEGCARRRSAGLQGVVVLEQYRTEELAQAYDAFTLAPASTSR

T3 sequence (Q9GZT9 181-426): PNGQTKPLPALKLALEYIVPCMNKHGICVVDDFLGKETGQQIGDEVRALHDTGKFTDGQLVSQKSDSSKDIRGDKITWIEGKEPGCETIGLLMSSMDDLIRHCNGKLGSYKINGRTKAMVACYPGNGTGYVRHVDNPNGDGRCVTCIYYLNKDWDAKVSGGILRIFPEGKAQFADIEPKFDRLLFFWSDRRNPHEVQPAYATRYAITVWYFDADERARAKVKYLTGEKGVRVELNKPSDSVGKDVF
T1 sequence (Q9GZT9 181-426): as above
T2 sequence (Q9GZT9 181-426): as above
KDM5B, sequence (Q9UGL1 whole entry, species assumed): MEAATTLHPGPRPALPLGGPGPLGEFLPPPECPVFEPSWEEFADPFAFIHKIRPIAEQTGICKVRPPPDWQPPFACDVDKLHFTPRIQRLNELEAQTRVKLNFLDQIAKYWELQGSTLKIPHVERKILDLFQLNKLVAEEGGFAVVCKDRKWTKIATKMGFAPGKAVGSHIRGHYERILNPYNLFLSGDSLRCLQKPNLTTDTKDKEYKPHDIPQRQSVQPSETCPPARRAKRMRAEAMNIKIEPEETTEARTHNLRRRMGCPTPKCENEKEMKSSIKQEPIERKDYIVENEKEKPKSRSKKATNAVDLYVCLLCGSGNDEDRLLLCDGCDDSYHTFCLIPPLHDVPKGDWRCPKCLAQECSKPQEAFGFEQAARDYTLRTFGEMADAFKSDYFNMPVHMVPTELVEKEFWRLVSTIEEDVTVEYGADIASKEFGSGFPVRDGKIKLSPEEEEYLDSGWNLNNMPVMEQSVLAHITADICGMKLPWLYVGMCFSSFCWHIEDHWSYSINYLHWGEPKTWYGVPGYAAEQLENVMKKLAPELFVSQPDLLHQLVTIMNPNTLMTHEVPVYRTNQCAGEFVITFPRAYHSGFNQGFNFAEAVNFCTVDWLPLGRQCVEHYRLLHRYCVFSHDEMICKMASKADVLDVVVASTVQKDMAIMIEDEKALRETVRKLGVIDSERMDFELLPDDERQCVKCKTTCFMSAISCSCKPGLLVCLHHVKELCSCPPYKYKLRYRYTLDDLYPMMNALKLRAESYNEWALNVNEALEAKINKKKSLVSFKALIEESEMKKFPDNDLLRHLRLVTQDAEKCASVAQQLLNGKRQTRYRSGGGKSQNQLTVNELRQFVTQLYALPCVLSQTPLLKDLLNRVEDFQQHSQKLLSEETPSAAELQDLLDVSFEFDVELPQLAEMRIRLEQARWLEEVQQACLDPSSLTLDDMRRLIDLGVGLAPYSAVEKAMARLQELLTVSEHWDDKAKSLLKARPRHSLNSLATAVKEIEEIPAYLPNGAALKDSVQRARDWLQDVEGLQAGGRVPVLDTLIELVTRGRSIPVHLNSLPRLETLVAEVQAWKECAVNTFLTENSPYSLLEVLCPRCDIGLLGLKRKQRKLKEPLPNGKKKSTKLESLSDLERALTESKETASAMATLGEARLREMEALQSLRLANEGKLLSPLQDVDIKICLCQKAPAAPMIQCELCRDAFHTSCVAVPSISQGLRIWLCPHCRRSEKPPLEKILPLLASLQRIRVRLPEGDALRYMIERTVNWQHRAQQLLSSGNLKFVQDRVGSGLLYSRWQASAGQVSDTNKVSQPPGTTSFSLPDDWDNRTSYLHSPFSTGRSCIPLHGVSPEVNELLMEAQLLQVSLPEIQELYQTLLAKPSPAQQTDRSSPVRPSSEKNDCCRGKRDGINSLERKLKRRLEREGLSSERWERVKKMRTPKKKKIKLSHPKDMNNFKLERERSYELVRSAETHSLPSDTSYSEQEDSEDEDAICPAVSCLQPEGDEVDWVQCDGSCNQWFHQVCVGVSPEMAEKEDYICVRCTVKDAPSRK

Question: For `O=Cc1ccc(O)c(C(=O)NCC(=O)O)c1` [S1], which “covalent modification of PHD2” value [1] is on record?
Answer: Its value is “No covalent modification”.

Question: With `C=CCc1cccc(C(=O)NCC(=O)O)c1O` [compound 4] as the compound, how does the “covalent adduct with PHD2 after up to 2 h” value ([1]; equimolar PHD2/Fe(II), 37 °C, up to 2 h) read?
Answer: The value was “No covalent adduct”.

Question: What does the source list for `O=Cc1c(O)c(C(=O)NCC(=O)O)cc2ccccc12` [compound 2]?
Answer: HIF-1α upregulation in HeLa cells ([2]; 50 or 250 µM): no upregulation of HIF-1α; condensation (covalent adduct) with PHD2 after 5 min ([1]; 37 °C): ~30%; covalent reaction with PHD2 after 20 min ([1]; 37 °C): react with PHD2; catalytic activity (CODD hydroxylation) of PHD2 covalently modified by the compound [3]: apparently active; IC50 [4]: > 100 µM; drop of IC50 on preincubation [5]: ~2 fold

Question: What does the source list for `CCOC(=O)CNC(=O)c1cccc(C=O)c1O` [compound 5]?
Answer: HIF-1α upregulation in HeLa cells ([2]; 0-500 μM): caused upregulation of HIF-1α; HIF-1α upregulation in HeLa cells at high concentrations ([2]; >250 μM): more pronounced HIF-1α upregulation

Question: What does the source list for `O=Cc1cccc(C(=O)NCC(=O)O)c1O` [compound 1]?
Answer: HIF-1α upregulation in HeLa cells ([2]; 50 or 250 µM): no upregulation of HIF-1α; condensation (covalent adduct) with PHD2 after 5 min ([1]; 37 °C): complete condensation; covalent reaction with PHD2 after 20 min ([1]; 37 °C): react with PHD2; catalytic activity (CODD hydroxylation) of PHD2 covalently modified by the compound [3]: apparently active; IC50 [4]: > 100 µM; drop of IC50 on preincubation [5]: ~2 fold

Question: Which IC50 [7] does the source give for `C=CC(=O)Nc1cc(N=[N+]=[N-])cc(C(=O)NCC(=O)O)c1O` [compound 7] here?
Answer: The IC50 was 18.2 µM.

Question: And the IC50 [8]?
Answer: The IC50 was 10.3 µM.

Question: And the IC50 [9]?
Answer: The IC50 was 13.6 µM.

Question: What about the IC50 [10] of the same compound?
Answer: The IC50 was 8.4 µM.

Question: With `O=Cc1cccc(C(=O)NCC(=O)O)n1` [S4] as the compound, how does the “covalent modification of PHD2” value [1] read?
Answer: Its value is “Some apparent covalent modification”.

From PMC6350621, “Small-molecules that covalently react with a human prolyl hydroxylase – towards activity modulation and substrate capture” (Chemical Communications (Cambridge, England), 2018)
